The results in this text go back to BindingDB's records for doi:10.1080/14756360310001613094 (Xiamen University, 2003).

The target of this assay is T1, Polyphenol oxidase 2 (Agaricus bisporus, UniProt O42713).
T1 sequence (O42713 whole entry): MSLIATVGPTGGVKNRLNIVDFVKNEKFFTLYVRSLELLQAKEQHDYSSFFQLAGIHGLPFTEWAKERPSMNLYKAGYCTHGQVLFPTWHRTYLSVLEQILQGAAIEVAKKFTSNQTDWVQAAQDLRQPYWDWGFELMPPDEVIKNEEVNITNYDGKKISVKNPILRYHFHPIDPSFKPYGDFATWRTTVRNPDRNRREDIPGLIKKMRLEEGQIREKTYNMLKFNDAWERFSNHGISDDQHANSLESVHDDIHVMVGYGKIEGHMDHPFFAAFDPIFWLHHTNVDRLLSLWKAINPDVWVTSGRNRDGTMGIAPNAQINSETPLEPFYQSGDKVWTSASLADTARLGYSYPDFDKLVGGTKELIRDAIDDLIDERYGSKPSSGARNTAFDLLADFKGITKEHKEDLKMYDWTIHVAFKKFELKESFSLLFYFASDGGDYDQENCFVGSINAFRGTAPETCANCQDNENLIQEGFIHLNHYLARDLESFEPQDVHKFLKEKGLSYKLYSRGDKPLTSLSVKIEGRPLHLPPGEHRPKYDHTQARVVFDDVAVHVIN
The assay can be described thus: Inhibition Assay. The text has this: Inhibition of alklbenzaldehydes on tyrosinase enzyme.

Molecules are shown by their SMILES.

One may read the IC50 as the concentration needed to halve the response being measured. Low values mean greater potency in that assay, high ones weaker potency in that assay. Consider `Cc1ccc(C=O)cc1` [4-Methylbenzaldehyde], for which inhibition was half-maximal at 120 µM (IC50).
A word on the Ki: it is a measure of affinity in units of concentration, obtained from inhibition or displacement. A lower Ki goes with higher affinity. As for `Cc1cccc(C=O)c1` [m-Tolualdehyde, b], inhibition was half-maximal at 450 µM (IC50) and the affinity corresponds to a Ki of 0.29 mM.
On the same counts, the results for `Cc1ccccc1C=O` [o-Tolualdehyde, a] are 2600 µM and 1.85 mM.
In turn, `CCc1ccc(C=O)cc1` [p-Ethylbenzaldehyde, d] showed an IC50 of 95 µM. This lies in the double-digit micromolar range.
On the same count and under the same terms, next, `CCCCCCCc1ccc(C=O)cc1` [p-Heptylbenzaldehyde, k]: 8.8 µM; `CCCCCCc1ccc(C=O)cc1` [p-Hexylbenzaldehyde, j]: 8 µM; `CC(C)c1ccc(C=O)cc1` [p-Isopropylbenzaldehyde, f]: 75 µM.
Regarding `CCCCCCCCc1ccc(C=O)cc1` [p-Octylbenzaldehyde, l], the IC50 came to 10 µM.
In the case of `CCCCCc1ccc(C=O)cc1` [p-Pentylbenzaldehyde, i], half-maximal inhibition (IC50) required 13.5 µM.
As for `CCCc1ccc(C=O)cc1` [p-Propyl-benzaldehyde, e], the midpoint of inhibition, the IC50, lay at 75 µM.
As for `CC(C)(C)c1ccc(C=O)cc1` [p-Tert-butylbenzaldehyde, g], the concentration for half-maximal inhibition (IC50) stood at 38 µM.
`CCCCc1ccc(C=O)cc1` [p-butyl-benzaldehyde, h] registered an IC50 of 38 µM.
